The target of one assay is human NPM1 (Homo sapiens, UniProt P06748). Description: Surface plasmon resonance (SPR) binding of peptides to human NPM1. The note with it: human NPM1, FIG. 14. An excerpt:
FIG. 14 depicts a table of the association rate, dissociation rate and the calculated equilibrium dissociation constant for 10 representative therapeutic peptides as measured by Surface Plasmon Resonance (SPR). Mean rates are derived from at least three different peptide concentrations at levels below saturation with human NPM1. Cell survival data are normalized to the negative control (a GFP fragment of similar size to the therapeutic peptides) and represent the mean of at least 3 separate experiments.
FIG. 15 depicts an on-off rate map. A graph of the off-rate (x-axis) and on-rate (y-axis) of 10 representative peptides from different sets of modified peptides. Diagonal dash-lines represent the equilibrium dissociation constant (KD) estimates the NPM1 binding affinity for each peptide based on the distance to the lines.
The 3D helical wheel projection scan predicted that 5 of 6 peptide residues (except for L185) with intermediate effects on post-ischemic cell survival cluster in a single surface domain (FIGS. 6 and 7). These surface residues are likely regulating the binding affinity Kd) between the therapeutic peptide and NPM1, the human target protein. Since binding affinity (Kd) between the peptide drug and NPMB1 partly predicts its efficacy, a high throughput, quantitative surface plasmon resonance (SPR) assay was developed.
SPR was measured for 10 novel polypeptides with select single or double mutations. Both the measured peptide “on” and “off” rates for binding human NPM1 markedly differed (FIG. 15). […] For most modified peptides, greater protection against ischemic stress positively correlated with a low Kd. […] Overall, SPR data combined with cell survival data adequately informs the selection of therapeutic peptides based on the quantifiable effects of R group modifications on these parameters. The combination of SPR binding affinity and cell survival data in vitro effectively rank orders therapeutic peptides for in vivo testing in animals.
Background: SPR reads the build-up and loss of mass on a sensor chip optically.

For assay [1], the system named is primary murine proximal tubule epithelial cells (PTEC). Description: MTT cell survival assay of kidney cells after ischemic stress in vitro induced by metabolic inhibitors. It is filed as cell-based. Particulars: for Effect of the residue (single alanine substitution) on cytoprotection / cell survival after ischemic stress: alanine scanning of NPMB1, PTEC, FIG. 2; for Degree of cytoprotection during ischemic stress: alanine scan and pro-helical mutations; for Protection of primary kidney proximal tubule cells from ischemic stress (relative kidney cell survival rate): 70 min ischemic stress, metabolic inhibitors, vs non-specific GFP fragment, normalized to baseline, FIG. 4; for Viability of primary murine kidney cells after ischemic stress: ischemic stress induced by metabolic inhibitors, FIGS. 5, 7. As to the method: FIG. 2 depicts an NPMB1 Alanine Scan. Relative kidney cell survival rate after 70 min ischemic stress in vitro induced by metabolic inhibitors in the presence of NPMB1 (control) vs. 19 different NPMBx polypeptides with single alanine substitutions (2 additional NPMB1 alanine residues were not substituted). Residue numbers (x axis) reflect Bax sequence that binds human NPM1; Survival data are normalized to NPMB1; post-ischemic kidney cell survival is shown in tertiles: (left-most group: 5-40% survival; middle-group: 55-70% and third group: 80-95%); n=3 separate experiments.
Relative kidney cell survival rate after 70 min ischemic stress in vitro induced by transient exposure to metabolic inhibitors in the presence of NPMB polypeptides (Agents 2, 5, 7, 14 that reflect alanine scan polypeptides A173, A187, A179, A176) vs. a non—specific polypeptide (GFP fragment). Survival data normalized to baseline (no stress); *P<0.01vs. baseline; t P<0.05 vs. stress; data represent 3 separate experiments; error bars represent mean+SD.
FIGS. 13A-13B depict the cytoprotective effects of select therapeutic peptides during ischemic stress in vitro. Primary murine proximal tubule epithelial cells (PTEC) were transiently exposed to metabolic inhibitors for 60 min and allowed to recover for 6 hr. to simulate ischemia in vivo; MTT assay estimated cell survival. “Control” (open bars); is a GFP fragment of similar size to the therapeutic peptides was used a negative control; NPMB1 (prototype) serves as a positive control. […] All peptides contained the nuclear localizing sequence (NLS) to enhance peptide delivery to the kidney, a beta linker and both carboxy-and amino terminal modifications to reduce susceptibility to protease digestion; data are mean+standard error; n=3 separate experiments. Figure discloses SEQ ID NOS 139, 134-135, 128, 127, and 138, respectively, in order of appearance.
Structure activity relationships of NPMB1 derivatives were determined through alanine scanning In these studies, 19 polypeptides were produced using methods shown in FIGS. 8-11 and their effect of kidney cell survival after ischemic stress was characterized using the MTT cell survival assay. Based on determination of relative kidney cell survival rate, polypeptides were grouped according to activity as shown in FIG. 2 (orange: 5-40% survival; blue 55-70% survival, or green 80-95% survival).

Entries after “also recorded” stand apart in the source; their conditions may differ. Square brackets hold non-standard residues; d marks the D form. βAla = NCCC(=O)O

Chain of human NPM1 (P06748 whole entry, the tested form may be a part): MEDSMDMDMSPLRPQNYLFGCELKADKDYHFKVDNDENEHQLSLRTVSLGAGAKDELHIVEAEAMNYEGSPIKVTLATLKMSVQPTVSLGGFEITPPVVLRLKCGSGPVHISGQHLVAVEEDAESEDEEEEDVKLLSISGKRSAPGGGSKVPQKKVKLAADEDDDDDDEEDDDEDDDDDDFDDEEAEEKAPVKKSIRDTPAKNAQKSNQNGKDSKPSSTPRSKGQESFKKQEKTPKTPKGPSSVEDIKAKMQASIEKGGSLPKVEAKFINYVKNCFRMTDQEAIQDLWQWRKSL

For “Ac-KKRRRKKRRRKKRRRK-Bala-TVTIFVAGVLTASLTIWKKMG-OH (Ac-KKRRRKKRRRKKRRRK[βAla]TVTIFVAGVLTASLTIWKKMG-OH; SMILES CC[C@H](C)[C@H](NC(=O)[C@@H](NC(=O)[C@H](CC(C)C)NC(=O)[C@H](CO)NC(=O)[C@H](C)NC(=O)[C@@H](NC(=O)[C@H](CC(C)C)NC(=O)[C@@H](NC(=O)CNC(=O)[C@H](C)NC(=O)[C@@H](NC(=O)[C@H](Cc1ccccc1)NC(=O)[C@@H](NC(=O)[C@@H](NC(=O)[C@@H](NC(=O)[C@@H](NC(=O)CCNC(=O)[C@H](CCCCN)NC(=O)[C@H](CCCNC(=N)N)NC(=O)[C@H](CCCNC(=N)N)NC(=O)[C@H](CCCNC(=N)N)NC(=O)[C@H](CCCCN)NC(=O)[C@H](CCCCN)NC(=O)[C@H](CCCNC(=N)N)NC(=O)[C@H](CCCNC(=N)N)NC(=O)[C@H](CCCNC(=N)N)NC(=O)[C@H](CCCCN)NC(=O)[C@H](CCCCN)NC(=O)[C@H](CCCNC(=N)N)NC(=O)[C@H](CCCNC(=N)N)NC(=O)[C@H](CCCNC(=N)N)NC(=O)[C@H](CCCCN)NC(=O)[C@H](CCCCN)NC(C)=O)[C@@H](C)O)C(C)C)[C@@H](C)O)[C@@H](C)CC)C(C)C)C(C)C)[C@@H](C)O)[C@@H](C)O)C(=O)N[C@@H](Cc1c[nH]c2ccccc12)C(=O)N[C@@H](CCCCN)C(=O)N[C@@H](CCCCN)C(=O)N[C@@H](CCSC)C(=O)NCC(=O)O) [NPMB1-I-010]”, in the assay with human NPM1, the “Kd / NPM1 binding affinity in words” value was “relatively low Kd”.
Regarding “Ac-PKKKRKV-Bala-AVTIFVAGVLTASLTIWKKMG-OMe [NPMB1-III-001]”, the “Effect of the residue (single alanine substitution) on cytoprotection / cell survival after ischemic stress” value in assay [1] is “moderate cytoprotective effects”.
For “Ac-PKKKRKV-Bala-QVTIAVAGVLTASLTIWKKMG-OMe [NPMB1-X-009]”, the “Cytoprotective effects during ischemic stress in vitro” value in assay [1] (peptides 100 nM, metabolic inhibitors 60 min, recovery 6 hr, vs GFP negative control, FIG. 13) is given as “most robust protection”.
For the substance “Ac-PKKKRKV-Bala-QVTIFVAGVLTASLTIWKKMG-OMe [NPMB1-V-004]”, the “Degree of cytoprotection during ischemic stress” value (shortened to “Degree”) in assay [1] is recorded as “highly effective”.
On to “Ac-PKKKRKV-Bala-TATIFVAGVLTASLTIWKKMG-OMe [NPMB1-III-002]”, for which, in assay [1], the “Protection of primary kidney proximal tubule cells from ischemic stress (relative kidney cell survival rate)” value was “protect”, the “Degree” value is reported as “substantial protection” and the “Effect of the residue (single alanine substitution) on cytoprotection / cell survival after ischemic stress” value is recorded as “minimal effect on cell survival”. Besides, the “Viability of primary murine kidney cells after ischemic stress” value (from here on “Viability of primary murine kidney cells”) in assay [1] (listed as Agent 2) is listed as “substantially improve the viability; also recorded: protect against ischemic injury”.
For the substance “Ac-PKKKRKV-Bala-TVAIFVAGVLTASLTIWKKMG-OMe [NPMB1-III-003]”, the “Effect of the residue (single alanine substitution) on cytoprotection / cell survival after ischemic stress” value in assay [1] is listed as “critical for cytoprotection”.
Still for that read-out and setting: then “Ac-PKKKRKV-Bala-TVTAFVAGVLTASLTIWKKMG-OMe [NPMB1-III-004]”, with “moderate cytoprotective effects”.
Consider “Ac-PKKKRKV-Bala-TVTIAVAAVLTASLTIWKKMG-OMe [NPMB1-X-008]”, for which the “Kd / NPM1 binding affinity in words” value with human NPM1 was “relatively low Kd values”.
As to “Ac-PKKKRKV-Bala-TVTIAVAGVLTASLTIWKKMG-OMe [NPMB1-III-005]”, in assay [1], the “Protection of primary kidney proximal tubule cells from ischemic stress (relative kidney cell survival rate)” value is recorded as “protect”, the “Degree” value is “substantial protection” and the “Effect of the residue (single alanine substitution) on cytoprotection / cell survival after ischemic stress” value is “minimal effect on cell survival”. Further, the “Viability of primary murine kidney cells” value in assay [1] (listed as Agent 5) was “substantially improve the viability; also recorded: protect against ischemic injury”.
“Ac-PKKKRKV-Bala-TVTIFAAGVLTASLTIWKKMG-OMe [NPMB1-III-006]”: in assay [1], the “Effect of the residue (single alanine substitution) on cytoprotection / cell survival after ischemic stress” value is given as “critical for cytoprotection”.
Take “Ac-PKKKRKV-Bala-TVTIFVAAVLTASLTIWKKMG-OMe [NPMB1-III-007]”: in assay [1], the “Protection of primary kidney proximal tubule cells from ischemic stress (relative kidney cell survival rate)” value is “protect”, the “Degree” value is on record as “substantial protection” and the “Effect of the residue (single alanine substitution) on cytoprotection / cell survival after ischemic stress” value is given as “minimal effect on cell survival”. Further, in assay [1] (listed as Agent 7), the “Viability of primary murine kidney cells” value was “substantially improve the viability; also recorded: protect against ischemic injury”.
For the substance “Ac-PKKKRKV-Bala-TVTIFVAGALTASLTIWKKMG-OMe [NPMB1-III-008]”, in assay [1], the “Effect of the residue (single alanine substitution) on cytoprotection / cell survival after ischemic stress” value is reported as “moderate cytoprotective effects”.
Same read-out and setting: then “Ac-PKKKRKV-Bala-TVTIFVAGVATASLTIWKKMG-OMe [NPMB1-III-009]”, with “critical for cytoprotection”; and “Ac-PKKKRKV-Bala-TVTIFVAGVLAASLTIWKKMG-OMe [NPMB1-III-010]”, with “critical for cytoprotection”; and “Ac-PKKKRKV-Bala-TVTIFVAGVLTAALTIWKKMG-OMe [NPMB1-III-011]”, with “critical for cytoprotection”.
For “Ac-PKKKRKV-Bala-TVTIFVAGVLTASATIWKKMG-OMe [NPMB1-III-012]”, the “Effect of the residue (single alanine substitution) on cytoprotection / cell survival after ischemic stress” value in assay [1] was “moderate cytoprotective effects”. The “Viability of primary murine kidney cells” value in assay [1] (listed as Agent 12) is recorded as “substantially improve the viability; also recorded: protect against ischemic injury”.
Take “Ac-PKKKRKV-Bala-TVTIFVAGVLTASLAIWKKMG-OMe [NPMB1-III-013]”: the “Effect of the residue (single alanine substitution) on cytoprotection / cell survival after ischemic stress” value in assay [1] is “moderate cytoprotective effects”.
As for “Ac-PKKKRKV-Bala-TVTIFVAGVLTASLQIWKKMG-OMe [NPMB1-V-003]”, the “Kd / NPM1 binding affinity in words” value with human NPM1 is given as “low Kd values (except NPMB1-V-003”.
“Ac-PKKKRKV-Bala-TVTIFVAGVLTASLTAWKKMG-OMe [NPMB1-III-014]”: in assay [1], the “Protection of primary kidney proximal tubule cells from ischemic stress (relative kidney cell survival rate)” value is listed as “protect”, the “Degree” value is reported as “substantial protection” and the “Effect of the residue (single alanine substitution) on cytoprotection / cell survival after ischemic stress” value is recorded as “minimal effect on cell survival”.
In the case of “Ac-PKKKRKV-Bala-TVTIFVAGVLTASLTIAKKMG-OMe [NPMB1-III-015]”, in assay [1], the “Effect of the residue (single alanine substitution) on cytoprotection / cell survival after ischemic stress” value is on record as “critical for cytoprotection”.
As to “Ac-PKKKRKV-Bala-TVTIFVAGVLTASLTIWAKMG-OMe [NPMB1-III-016]”, the “Effect of the residue (single alanine substitution) on cytoprotection / cell survival after ischemic stress” value in assay [1] is “critical for cytoprotection”.
In the case of “Ac-PKKKRKV-Bala-TVTIFVAGVLTASLTIWKAMG-OMe [NPMB1-III-017]”, the “Effect of the residue (single alanine substitution) on cytoprotection / cell survival after ischemic stress” value in assay [1] was “critical for cytoprotection”.
Take “Ac-PKKKRKV-Bala-TVTIFVAGVLTASLTIWKKAG-OMe [NPMB1-III-018]”: the “Effect of the residue (single alanine substitution) on cytoprotection / cell survival after ischemic stress” value in assay [1] is reported as “moderate cytoprotective effects”.
With “Ac-PKKKRKV-Bala-TVTIFVAGVLTASLTIWKKMA-OMe [NPMB1-III-019]”, the “Effect of the residue (single alanine substitution) on cytoprotection / cell survival after ischemic stress” value in assay [1] is “critical for cytoprotection”.
In the case of “Ac-PKKKRKV-Bala-TVTLFVAGVLTASLTAWKKMG-OMe [NPMB1-X-002]”, the “Kd / NPM1 binding affinity in words” value with human NPM1 is given as “relatively low Kd values”.

The values above are taken from patent US20240309060A1, “POLYPEPTIDE BAX/NPM INHIBITORS” (TRUSTEES OF BOSTON UNIVERSITY, priority 2023, published 2024).
